Experimental data taken from the supplement of paper PMC5908809.

Assays:
[1] = system: normal NK cells expanded with K562-aAPC; assay: drug sensitivity score (DSS) (DSS units); higher = more sensitive; extreme values may be limits of the assay; conditions: 72 h; IL-2 2.5 ng/mL
Description: (§1)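 Drug sensitivity and resistance testing on K562-aAPC-expanded normal NK cells: 5 concentrations (10-fold steps over a 10,000-fold range), 72 h at 37 °C, viability by CellTiter-Glo normalised to DMSO and benzethonium chloride controls; DSS from the fitted curve.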

NK-92 (IL-2 2.5 ng/mL) [2] = assay: as above; conditions: 72 h
NK-YS (IL-2 2.5 ng/mL) [3] = assay: as above; conditions: 72 h
[4] = system: normal primary NK cells, pool 3 (3 donors) (IL-2 2.5 ng/mL); assay: as above; conditions: 72 h
[5] = system: normal primary NK cells, pool 1 (3 donors), resting (IL-2 0 ng/mL); assay: as above; conditions: 72 h
KHYG-1 (IL-2 2.5 ng/mL) [6] = assay: as above; conditions: 72 h
[7] = system: normal primary NK cells, pool 1 (3 donors) (IL-2 2.5 ng/mL); assay: as above; conditions: 72 h
[8] = system: normal primary NK cells, pool 2 (3 donors) (IL-2 2.5 ng/mL); assay: as above; conditions: 72 h
SNK-6 (IL-2 2.5 ng/mL) [9] = assay: as above; conditions: 72 h
KAI3 (IL-2 2.5 ng/mL) [10] = assay: as above; conditions: 72 h
NKL (IL-2 2.5 ng/mL) [11] = assay: as above; conditions: 72 h
IMC-1 (IL-2 20 ng/mL) [12] = assay: as above; conditions: 72 h
YT (IL-2 2.5 ng/mL) [13] = assay: as above; conditions: 72 h
DERL-7 (IL-2 2.5 ng/mL) [14] = assay: as above; conditions: 72 h
NK-92 (IL-2 2.5 ng/mL) [15] = assay: percent inhibition of viability; higher = more inhibition; conditions: 72 h
NK-YS (IL-2 2.5 ng/mL) [16] = assay: as above; conditions: 72 h
[17] = system: normal primary NK cells, pool 3 (3 donors) (IL-2 2.5 ng/mL); assay: as above; conditions: 72 h
[18] = system: normal primary NK cells, pool 1 (3 donors), resting (IL-2 0 ng/mL); assay: as above; conditions: 72 h
KHYG-1 (IL-2 2.5 ng/mL) [19] = assay: as above; conditions: 72 h
[20] = system: normal primary NK cells, pool 1 (3 donors) (IL-2 2.5 ng/mL); assay: as above; conditions: 72 h
[21] = system: normal primary NK cells, pool 2 (3 donors) (IL-2 2.5 ng/mL); assay: as above; conditions: 72 h
SNK-6 (IL-2 2.5 ng/mL) [22] = assay: as above; conditions: 72 h
KAI3 (IL-2 2.5 ng/mL) [23] = assay: as above; conditions: 72 h
NKL (IL-2 2.5 ng/mL) [24] = assay: as above; conditions: 72 h
IMC-1 (IL-2 20 ng/mL) [25] = assay: as above; conditions: 72 h
YT (IL-2 2.5 ng/mL) [26] = assay: as above; conditions: 72 h
DERL-7 (IL-2 2.5 ng/mL) [27] = assay: as above; conditions: 72 h
[28] = system: normal NK cells expanded with K562-aAPC; assay: as above; conditions: 72 h, IL-2 2.5 ng/mL
Description: as §1

CN(C)C/C=C/C(=O)Nc1cc2c(Nc3ccc(F)c(Cl)c3)ncnc2cc1O[C@H]1CCOC1 [Afatinib] (max concentration tested 1000 nM)
Conditions | drug sensitivity score
DERL-7 (IL-2 2.5 ng/mL) [14] | 2.57
IMC-1 (IL-2 20 ng/mL) [12] | 0
KAI3 (IL-2 2.5 ng/mL) [10] | 0.41
KHYG-1 (IL-2 2.5 ng/mL) [6] | 0
NK-92 (IL-2 2.5 ng/mL) [2] | 1.32
NK-YS (IL-2 2.5 ng/mL) [3] | 0.66
NKL (IL-2 2.5 ng/mL) [11] | 3.07
SNK-6 (IL-2 2.5 ng/mL) [9] | 0
YT (IL-2 2.5 ng/mL) [13] | 2.06
[1] | 1.97
[4] | 0
[5] | 0.88
[7] | 0.16
[8] | 0.29

percent inhibition of viability [%]
Conditions | 0.1 nM | 1 nM | 10 nM | 100 nM | 1000 nM
DERL-7 (IL-2 2.5 ng/mL) [27] | 1.24 | -0.84 | 3.12 | 3.53 | 40.4
IMC-1 (IL-2 20 ng/mL) [25] | -4.64 | 0.23 | 3.73 | 0.77 | -7.53
KAI3 (IL-2 2.5 ng/mL) [23] | -6.04 | -6.37 | -2.67 | -0.11 | 17.7
KHYG-1 (IL-2 2.5 ng/mL) [19] | 1.25 | 0.47 | 0.09 | 5.88 | 8.01
NK-92 (IL-2 2.5 ng/mL) [15] | -4.74 | -8.88 | -4.7 | 6.1 | 20
NK-YS (IL-2 2.5 ng/mL) [16] | -6.74 | -1.03 | -0.59 | 1.9 | 17.9
NKL (IL-2 2.5 ng/mL) [24] | 4.2 | 5.29 | 8.09 | 15.9 | 30.1
SNK-6 (IL-2 2.5 ng/mL) [22] | 5.26 | 23.4 | 23.4 | 27.9 | -1.27
YT (IL-2 2.5 ng/mL) [26] | 0.42 | 0.78 | 2.66 | 5.09 | 29.2
[17] | -7.17 | -9.3 | 9.58 | -8.16 | 3.09
[18] | 1.52 | -21.3 | -1.76 | -18.2 | 31.8
[20] | 0.9 | -20.4 | -8.14 | -16.9 | 17.6
[21] | -9.45 | -8.4 | 7.17 | -5.73 | 18.4
[28] | -3.84 | -0.9 | 0.35 | 8.86 | 23.9

COc1cc(Nc2ncc3c(n2)-c2ccc(Cl)cc2C(c2c(F)cccc2OC)=NC3)ccc1C(=O)O [Alisertib] (max concentration tested 10000 nM)
Conditions | drug sensitivity score
DERL-7 (IL-2 2.5 ng/mL) [14] | 23.4
IMC-1 (IL-2 20 ng/mL) [12] | 19.8
KAI3 (IL-2 2.5 ng/mL) [10] | 16
KHYG-1 (IL-2 2.5 ng/mL) [6] | 24.4
NK-92 (IL-2 2.5 ng/mL) [2] | 21.1
NK-YS (IL-2 2.5 ng/mL) [3] | 24.5
NKL (IL-2 2.5 ng/mL) [11] | 17.9
SNK-6 (IL-2 2.5 ng/mL) [9] | 24.9
YT (IL-2 2.5 ng/mL) [13] | 13.6
[1] | 16.4
[4] | 1.41
[5] | 5.81
[7] | 0
[8] | 1.95

percent inhibition of viability [%]
Conditions | 1 nM | 10 nM | 100 nM | 1000 nM | 10000 nM
DERL-7 (IL-2 2.5 ng/mL) [27] | 3.14 | 3.32 | 73.9 | 65.1 | 72.8
IMC-1 (IL-2 20 ng/mL) [25] | -9.95 | 3 | 42.5 | 76.7 | 88
KAI3 (IL-2 2.5 ng/mL) [23] | -7.42 | 6.5 | 38.4 | 56.8 | 73
KHYG-1 (IL-2 2.5 ng/mL) [19] | -6.82 | 13.3 | 62.3 | 82.9 | 90.3
NK-92 (IL-2 2.5 ng/mL) [15] | -1.61 | 21.5 | 53.4 | 63.6 | 77.1
NK-YS (IL-2 2.5 ng/mL) [16] | -8.82 | 18.6 | 67.4 | 75.4 | 71.3
NKL (IL-2 2.5 ng/mL) [24] | -15.7 | -12.7 | 54.1 | 31.1 | 62.9
SNK-6 (IL-2 2.5 ng/mL) [22] | -9.82 | 4.71 | 73.7 | 81.3 | 84.4
YT (IL-2 2.5 ng/mL) [26] | -1.37 | 10.7 | 43.4 | 32.9 | 60.8
[17] | 4.24 | -4.25 | 17.1 | 4.71 | 23
[18] | 4.36 | 18.6 | 7.69 | 21.1 | 47.6
[20] | -6.59 | 4.27 | 6.91 | 0.99 | 12.4
[21] | -1.45 | -4.51 | 12.5 | 7.67 | 29.6
[28] | -8.29 | -10.5 | 39 | 46 | 63.8

CN(C)c1nc(N(C)C)nc(N(C)C)n1 [Altretamine] (max concentration tested 10000 nM)
Conditions | drug sensitivity score
DERL-7 (IL-2 2.5 ng/mL) [14] | 0
IMC-1 (IL-2 20 ng/mL) [12] | 0
KAI3 (IL-2 2.5 ng/mL) [10] | 4.61
KHYG-1 (IL-2 2.5 ng/mL) [6] | 0
NK-92 (IL-2 2.5 ng/mL) [2] | 0
NK-YS (IL-2 2.5 ng/mL) [3] | 0.51
NKL (IL-2 2.5 ng/mL) [11] | 0
SNK-6 (IL-2 2.5 ng/mL) [9] | 0
YT (IL-2 2.5 ng/mL) [13] | 0
[1] | 0
[4] | 0
[5] | 2.84
[7] | 0
[8] | 0

percent inhibition of viability [%]
Conditions | 1 nM | 10 nM | 100 nM | 1000 nM | 10000 nM
DERL-7 (IL-2 2.5 ng/mL) [27] | -4.53 | -2.77 | 0.97 | 2.22 | 0.81
IMC-1 (IL-2 20 ng/mL) [25] | -2.71 | 0.47 | -4.67 | -2.63 | -6.93
KAI3 (IL-2 2.5 ng/mL) [23] | 3.52 | 10.7 | 11.4 | 24.1 | 24.6
KHYG-1 (IL-2 2.5 ng/mL) [19] | -7.38 | -7.34 | -6.09 | -2.99 | -6.61
NK-92 (IL-2 2.5 ng/mL) [15] | -14.2 | -12.6 | -6.86 | -1.41 | -0.2
NK-YS (IL-2 2.5 ng/mL) [16] | 1.59 | -1.58 | 1.2 | 11.7 | 9.31
NKL (IL-2 2.5 ng/mL) [24] | -10 | -9.91 | -10.4 | 1.45 | 1.87
SNK-6 (IL-2 2.5 ng/mL) [22] | -4.42 | -8.89 | -0.39 | 6.56 | -2.57
YT (IL-2 2.5 ng/mL) [26] | -3.72 | -5.67 | -6.12 | -0.77 | -8.31
[17] | -9.05 | -7.82 | -1.85 | -3.99 | 3.69
[18] | -0.78 | -0.59 | 9.13 | 16.1 | 26
[20] | -5.08 | -6.48 | -0.04 | -1.59 | 3.54
[21] | -3.77 | -3.94 | -0.13 | 0 | 1.61
[28] | -2.99 | -3.76 | 0.47 | -2.02 | -2.72
